Consider 3 compounds from ChEMBL document CHEMBL1697781, “Assessment of the health effects of chemicals in humans: II. Construction of an adverse effects database for QSAR modeling” (Curr Drug Discov Technol, 2004).

Details in all cases: human; call rule not given here
For data set [1], the system named is Hepatotoxicity. The data set is described as follows: FDA HLAED, gamma-glutamyl transferase (GGT) increase.
Data set [2] concerns Hepatotoxicity. The data set is described as follows: FDA HLAED, serum glutamic oxaloacetic transaminase (SGOT) increase.
In data set [3] the test system is Hepatotoxicity. The data set is described as follows: FDA HLAED, lactate dehydrogenase (LDH) increase.
Data set [4] deals with Hepatotoxicity. The data set is described as follows: FDA HLAED, alkaline phosphatase increase.
The test system of data set [5] is Hepatotoxicity. The data set is described as follows: FDA HLAED, serum glutamic pyruvic transaminase (SGPT) increase.
For data set [6], the system named is Hepatotoxicity. The data set is described as follows: FDA HLAED, liver enzyme composite activity.
For GGT Increase - Index Value in this document: reference of the scale not given here.
For LDH Increase - Index Value in this document: reference of the scale not given here.

For `CC(C)(C)NCC(O)COc1cccc2c1CCC(=O)N2` (centres undefined) [CARTEOLOL], in the data set on Hepatotoxicity [1], the “GGT Increase - Activity Score” value is recorded as “Inactive”, the “GGT Increase - Index Value” is 0 and the “GGT Increase - Number of Reports” value was below 4. Besides, in the data set on Hepatotoxicity [2], the “SGOT Increase - Activity Score” value is “Inactive”, the “SGOT Increase - Index Value” is 0.5 and the “SGOT Increase - Number of Reports” value was below 4. Further, in the data set with Hepatotoxicity [3], the “LDH Increase - Activity Score” value was “Inactive”, the “LDH Increase - Index Value” stood at 0.5 and the “LDH Increase - Number of Reports” value is given as below 4. In the data set on Hepatotoxicity [4], the “Alkaline Phosphatase Increase - Activity Score” value is listed as “Inactive”, the “Alkaline Phosphatase Increase - Index Value” amounted to 0 and the “Alkaline Phosphatase Increase - Number of Reports” value was below 4. For the same compound, in the data set on Hepatotoxicity [5], the “SGPT Increase - Activity Score” value is given as “Inactive”, the “SGPT Increase - Index Value” worked out at 0.5 and the “SGPT Increase - Number of Reports” value is listed as below 4. Also, in the data set with Hepatotoxicity [6], the “Composite Activity - Active” value is on record as 0, the “Composite Activity - Marginal” value is 0 and the “Composite Activity - Score” value is reported as “Inactive”.

Turning to `COc1ccccc1OCCNCC(O)COc1cccc2[nH]c3ccccc3c12` (centres undefined) [CARVEDILOL], in the data set on Hepatotoxicity [1], the “GGT Increase - Activity Score” value is reported as “Inactive”, the “GGT Increase - Index Value” stood at 0 and the “GGT Increase - Number of Reports” value is below 4. Moreover, in the data set with Hepatotoxicity [2], the “SGOT Increase - Activity Score” value is on record as “Inactive”, the “SGOT Increase - Index Value” stood at 0 and the “SGOT Increase - Number of Reports” value is below 4. Moreover, in the data set with Hepatotoxicity [3], the “LDH Increase - Activity Score” value is “Inactive”, the “LDH Increase - Index Value” was 0 and the “LDH Increase - Number of Reports” value is listed as below 4. In the data set with Hepatotoxicity [4], the “Alkaline Phosphatase Increase - Activity Score” value is “Inactive”, the “Alkaline Phosphatase Increase - Index Value” amounted to 0 and the “Alkaline Phosphatase Increase - Number of Reports” value was below 4. In the data set with Hepatotoxicity [5], the “SGPT Increase - Activity Score” value is “Inactive”, the “SGPT Increase - Index Value” amounted to 0 and the “SGPT Increase - Number of Reports” value is recorded as below 4. Further, in the data set with Hepatotoxicity [6], the “Composite Activity - Active” value worked out at 0, the “Composite Activity - Marginal” value is recorded as 0 and the “Composite Activity - Score” value was “Inactive”.

`N[C@@H](C(=O)N[C@@H]1C(=O)N2C(C(=O)O)=C(Cl)CS[C@H]12)c1ccccc1` [CEFACLOR ANHYDROUS]: in the data set with Hepatotoxicity [1], the “GGT Increase - Activity Score” value is reported as “Inactive”, the “GGT Increase - Index Value” is given as 0 and the “GGT Increase - Number of Reports” value is recorded as below 4. Further, in the data set on Hepatotoxicity [2], the “SGOT Increase - Activity Score” value is “Active”, the “SGOT Increase - Index Value” amounted to 6 and the “SGOT Increase - Number of Reports” value was “>= 4”. Moreover, in the data set on Hepatotoxicity [3], the “LDH Increase - Activity Score” value is on record as “Inactive”, the “LDH Increase - Index Value” worked out at 0.4 and the “LDH Increase - Number of Reports” value is recorded as “>= 4”. In the data set on Hepatotoxicity [4], the “Alkaline Phosphatase Increase - Activity Score” value is recorded as “Marginally Active”, the “Alkaline Phosphatase Increase - Index Value” was 3.4 and the “Alkaline Phosphatase Increase - Number of Reports” value is reported as “>= 4”. In addition, in the data set with Hepatotoxicity [5], the “SGPT Increase - Activity Score” value is reported as “Inactive”, the “SGPT Increase - Index Value” stood at 2.9 and the “SGPT Increase - Number of Reports” value is listed as “>= 4”. In addition, in the data set with Hepatotoxicity [6], the “Composite Activity - Active” value worked out at 1, the “Composite Activity - Marginal” value came to 1 and the “Composite Activity - Score” value is listed as “Inactive”.
